In PubChem BioAssay (NCI):
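Interpolation was linear, between the two tested concentrations surrounding the appropriate level; five concentrations were tested over 48 hours in 96-well plates. TGI: concentration producing complete growth inhibition.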

Columns and labels:
Experiment in all cases: NCI-60 cell line screen, 48 h
TK-10 renal = test system: TK-10 renal
SNB-19 CNS = test system: SNB-19 CNS
MDA-MB-231 breast = test system: MDA-MB-231 breast
SN12C renal = test system: SN12C renal
EKVX NSCLC = test system: EKVX NSCLC
HCT-15 colon = test system: HCT-15 colon
RPMI-8226 leukemia = test system: RPMI-8226 leukemia
NCI/ADR-RES ovarian = test system: NCI/ADR-RES ovarian
SR leukemia = test system: SR leukemia
BT-549 breast = test system: BT-549 breast
HCC-2998 colon = test system: HCC-2998 colon
SK-MEL-28 melanoma = test system: SK-MEL-28 melanoma
DU-145 prostate = test system: DU-145 prostate
SF-295 CNS = test system: SF-295 CNS
OVCAR-5 ovarian = test system: OVCAR-5 ovarian
HT29 colon = test system: HT29 colon
M14 melanoma = test system: M14 melanoma
OVCAR-4 ovarian = test system: OVCAR-4 ovarian
MDA-N = test system: MDA-N
HS 578T breast = test system: HS 578T breast

Row | Compound | TGI (TK-10 renal) [µM] | TGI (SNB-19 CNS) [µM] | TGI (MDA-MB-231 breast) [µM] | TGI (SN12C renal) [µM] | TGI (EKVX NSCLC) [µM] | TGI (HCT-15 colon) [µM] | TGI (RPMI-8226 leukemia) [µM] | TGI (NCI/ADR-RES ovarian) [µM] | TGI (SR leukemia) [µM] | TGI (BT-549 breast) [µM] | TGI (HCC-2998 colon) [µM] | TGI (SK-MEL-28 melanoma) [µM] | TGI (DU-145 prostate) [µM] | TGI (SF-295 CNS) [µM] | TGI (OVCAR-5 ovarian) [µM] | TGI (HT29 colon) [µM] | TGI (M14 melanoma) [µM] | TGI (OVCAR-4 ovarian) [µM] | TGI (MDA-N) [µM] | TGI (HS 578T breast) [µM]
1 | O=C1C(=O)c2c(oc(=O)c3ccccc23)-c2ccccc21 | > 25 | > 25 | > 25 | > 25 | > 25 | > 25 | > 25 | > 25 | > 25 | > 25 | > 25 | > 25 | > 25 | > 25 | > 25 | > 25 | > 25 | 20.3 | > 25 | > 25
2 | CN(C)c1ccc(/C=N\NC(=O)c2ccccc2Nc2ccccc2C(=O)N/N=C/c2ccc(N(C)C)cc2)cc1 | > 100 | > 100 | 67.8 | > 100 | > 100 | > 100 | > 100 | > 100 | > 100 | > 100 | > 100 | > 100 | > 100 | > 100 | > 100 | > 100 | 95.9 | > 100 | > 100 | > 100
3 | C=C(Cl)c1c(OC)cccc1OCc1ccccc1 | > 100 | > 100 | > 100 | > 100 | > 100 | > 100 | > 100 | > 100 | > 100 | > 100 | > 100 | > 100 | > 100 | > 100 | > 100 | > 100 | > 100 | > 100 | > 100 | > 100
4 | CC1=NN(C(=O)CC(=O)Nc2ccc(C)cc2)C(=O)C1N=Nc1ccc(C(=O)O)cc1 (stereo not given) | > 100 | > 100 | > 100 | > 100 | > 100 | > 100 | > 100 | > 100 | > 100 | > 100 | > 100 | > 100 | > 100 | > 100 | > 100 | > 100 | > 100 | > 100 | > 100 | > 100
5 | c1ccc2c(C3CCN(CCN4CCOCC4)C3)c[nH]c2c1 (stereo not given) | > 100 | > 100 | > 100 | > 100 | > 100 | > 100 | > 100 | > 100 | > 100 | > 100 | > 100 | > 100 | > 100 | > 100 | > 100 | > 100 | > 100 | > 100 | > 100 | > 100
6 | CCOC(=O)C1=CN/C(=C(/C)C(=O)OC)SC1C(=O)OCC (stereo not given) | > 100 | > 100 | > 100 | > 100 | > 100 | > 100 | > 100 | > 100 | > 100 | > 100 | > 100 | > 100 | > 100 | > 100 | > 100 | > 100 | > 100 | > 100 | > 100 | > 100
7 | O=C(N/N=C/c1ccc2c(c1)OCO2)Nc1ccccc1Cl | 21 | > 79.3 | > 100 | > 46.7 | > 60.5 | > 100 | > 56.2 | 2.4 | > 34.2 | 75.7 | 5.14 | > 100 | > 20.3 | 6.84 | > 100 | > 49.1 | > 39.5 | > 100 | 0.501 | 8.25
8 | COC(=O)C1=C(O)C(C(=O)OC)[C@]2(O)[C@H](C(=O)OC)[C@H]1C[C@@H](c1ccc(F)cc1)[C@H]2C(=O)OC (stereo not given in full) | 57.5 | > 100 | > 100 | 26.3 | 41.3 | 40.8 | 69.7 | 36.8 | 47.5 | 65.9 | 28.7 | 27.4 | 67.6 | 43.9 | 37.5 | 34 | 27.5 | > 100 | 17.1 | 81.8
9 | CNc1c2cccc(C)c2nc2c(C(=O)NCCN(C)C)cccc12 | 0.617 | 0.876 | 0.274 | 0.719 | 1.33 | 0.634 | 0.57 | 1.83 | 0.469 | 2.8 | 0.192 | 1.17 | 0.684 | 0.952 | 1.1 | 0.138 | 0.887 | 0.114 | 0.328 | 0.497
10 | O=C(c1ccccc1)c1ccc2nc3n(c2c1)C(c1c(F)cccc1F)SC3 (stereo not given) | > 100 | > 100 | > 100 | 34.8 | > 48.4 | > 59 | > 100 | 26.5 | 9.4 | > 100 | > 52.5 | > 70.5 | > 74 | 13.8 | > 91.1 | 39.5 | 15.4 | > 73.6 | 3.43 | > 81
11 | Cc1ccc2nc(CN3CCCC(O)C3)cc(=O)n2c1 (stereo not given) | > 100 | > 100 | > 100 | > 100 | > 100 | > 100 | > 100 | > 100 | > 100 | > 100 | > 100 | > 100 | > 100 | > 100 | > 100 | > 100 | > 100 | > 100 | > 100 | > 100
12 | CN1CCC2(CC1)SC[C@H]1C(=O)N(c3ccc(Cl)cc3)C(=O)N12 | > 100 | > 100 | > 100 | > 100 | > 100 | > 100 | > 100 | > 100 | > 100 | > 100 | > 100 | > 100 | > 100 | > 100 | > 100 | > 100 | > 100 | > 100 | > 100 | > 100
13 | Cc1cc(C)nc(NS(=O)(=O)c2ccc(NNc3c4ccccc4nc4c(C(=O)Nc5ccc(S(=O)(=O)Nc6ncccn6)cc5)cccc34)cc2)n1 | > 100 | > 100 | 65.3 | 75.1 | 54.3 | > 100 | 76.8 | > 100 | 59 | > 100 | 51.2 | 65 | > 100 | > 100 | 52.5 | 77.4 | > 100 | 89.7 | > 100 | > 100
14 | CC(C)=CCC[C@@H](C)C1=C(O)C(O)C(C)=C2N=C(c3ccccc3)C(=O)OC21 (stereo not given in full) | > 25 | > 25 | 17.3 | > 25 | > 25 | > 25 | > 7.03 | 3.13 | > 20.5 | > 25 | 21.2 | > 25 | > 25 | > 10.9 | > 25 | 18.5 | > 17.8 | > 25 | > 25 | 13.4
15 | COc1cc(C2SCC(=O)N2c2ccccc2Cl)cc(OC)c1OC (stereo not given) | > 100 | > 100 | > 100 | > 100 | > 100 | > 100 | > 100 | > 100 | > 100 | > 100 | > 100 | > 100 | > 100 | > 100 | > 100 | > 100 | > 100 | > 100 | 44.8 | > 100
16 | COc1ccc2cc(CNCCCCCCCCCCCCNCc3ccc4cc(OC)ccc4c3)ccc2c1 | 32.8 | 31.3 | > 51.5 | 46.9 | 37.6 | 50.9 | 42.6 | 43 | > 21.5 | 33 | 39.1 | > 56 | > 56.1 | 42.2 | > 57.1 | 23 | 35.9 | 41.3 | > 54.4 | 31.7
17 | CCN(CC)C(=C(C(Cl)=C(Cl)Cl)[N+](=O)[O-])N(CC)CC | > 100 | > 100 | > 100 | > 100 | > 100 | > 100 | > 100 | > 100 | > 100 | > 100 | > 100 | > 100 | > 100 | > 100 | > 100 | > 100 | > 100 | > 100 | > 100 | 68.5
18 | C=C1C(=O)C23CC1C[C@H](OC(C)=O)[C@H]2C1(C)C(OC(C)=O)C[C@H](O)C(C)(C)[C@H]1C(=O)[C@@H]3OC(C)=O (stereo not given in full) | 5.82 | 34.6 | 11.7 | 15.1 | 15.7 | 11 | 4.81 | 35.6 | > 24.7 | 7.4 | 35.9 | 13.2 | 25.7 | 31.9 | 22.5 | 17 | 9.5 | 16.3 | 10.7 | 15.3
19 | O=C1CC(NC(=O)C(F)(F)F)c2c1csc2Br (stereo not given) | > 100 | > 100 | > 100 | > 100 | 38.2 | > 100 | > 100 | > 100 | > 100 | > 100 | > 100 | > 100 | > 100 | > 100 | 6.03 | > 100 | > 100 | > 100 | > 100 | > 100
20 | Cc1oc2c(c1C)S(=O)(=O)C(C#N)=C(c1ccccc1)N2 | > 100 | > 100 | > 100 | > 100 | > 100 | > 100 | > 100 | > 100 | > 100 | > 100 | > 100 | > 100 | > 100 | > 100 | > 100 | > 100 | > 100 | > 100 | > 100 | > 100
21 | COC(=O)c1c(O)ccc2c1c1c(n2Cc2ccccc2)C(=O)c2ccccc2C1=O | 31.8 | 28.7 | 32.2 | 28.1 | 36.6 | 30.3 | 29.2 | 28.8 | 50.1 | 31.6 | 17.9 | 31.7 | 49.9 | 36.3 | 39.2 | 22.6 | 37.4 | 24.3 | 56.3 | 43.3
22 | COc1cc(/C=C(\C#N)c2nc3ccccc3o2)ccc1O | 75 | > 100 | 68.5 | > 100 | 49.6 | 42.6 | 63.6 | 64.3 | > 100 | 34.5 | 41.9 | 58.1 | 65.1 | 36.8 | 61.2 | 48.1 | 54.6 | 40.7 | > 100 | 75.2
23 | O=C1NC(=O)C(Cc2ccccc2)(c2cccnc2)N1 (stereo not given) | > 100 | > 100 | > 100 | > 100 | > 100 | > 100 | > 100 | > 100 | > 100 | > 100 | > 100 | > 100 | > 100 | > 100 | > 100 | > 100 | > 100 | > 100 | > 100 | > 100
